Reference: patent US10882854B2, “Heterocyclic compounds and use thereof” (National Health Research Institutes, priority 2017, dated 2021)

What was measured:
HCC cell line HCA-1 = test: Syngeneic orthotopic hepatocellular carcinoma (HCC) mouse model; format: in vivo, C3H mice; details: C3H mice with orthotopic HCA-1; 10 mg/kg/day by osmotic pump for two weeks, combined with sorafenib 40 mg/kg daily; control about 400 mm^3
Description: The efficacy of a compound of Formula (I), i.e., Compounds 42, in treating HCC was assessed using a syngeneic mouse model as follows.
C3H mouse-derived HCC cell line HCA-1 was used. HCA-1 cells were orthotopically implanted in C3H mice for 10 days. The mice were subsequently treated with sorafenib (a small molecule drug for treating hepatocellular carcinoma; 40 mg/kg) daily for two weeks or treated with vehicle (PBS) alone as a control. Tested compounds, e.g., AMD3100 (10 mg/kg/day) and Compound 42 (10 mg/kg/day), were each administered continuously to those mice treated with sorafenib using an Alzet osmotic pump (DURECT Corporation, Cupertino, Calif.) for two weeks.

[1] = test system: acute Kidney Injury (AKI) model; test: Ischemia-reperfusion acute kidney injury (AKI) model in rats; format: in vivo, male Sprague-Dawley rats; details: 6 mg/Kg subcutaneous 40 min before AKI, blood 24 h after induction of AKI
Description: The efficacy of five compounds of Formula (I) in treating Ischemia-Reperfusion injury was assessed using both an acute kidney injury model, an ischemic stroke model, and a limb ischemia model. These five compounds are Compounds 13, 35, 40, 45, and 46. In an acute Kidney Injury (AKI) model, each of the five compounds was dissolved in saline to form a solution. The solution was administered to male Sprague-Dawley rats (National Laboratory Animal Center, Taipei, Taiwan) subcutaneously at a dosage of 6 mg/Kg. 40 minutes after the subcutaneous injection, AKI was induced in the rats by clamping their bilateral renal vein and artery for one hour followed by releasing the vessel clips to allow 24-h reperfusion. Whole blood was collected at 24-h after induction of AKI. Blood urea nitrogen (BUN) and serum creatinine (Scr), two markers that increase upon kidney injury, were measured using a FUJI DRI-CHEM 3500s analyzer (Fujifilm, Tokyo, Japan). Non-AKI rats and AKI rats treated with saline were used as controls.

[2] = test system: T-cell acute lymphoblastic leukemia (CCRF-CEM) cells; test: Inhibition of CXCL12-induced chemotaxis in lymphoblastic leukemia cells; format: cell-based; details: Homo sapiens, CXCL12 10 nM, 2.5 h at 37 °C, read-out: concentration required to inhibit chemotaxis by 50% (EC50)
Description: The response of cancer cells to compounds of Formula (I) was evaluated using the chemotaxis assay as set forth below.
T-cell acute lymphoblastic leukemia (CCRF-CEM) cells in Roswell Park Memorial Institute medium (RPMI) 1640 supplemented with 10% […] were incubated with 250 μL of a test compound. The assay was performed using Millicell Hanging Cell Culture Inserts (pore size 5 μm; 24-well plate; Millipore, Bedford, Mass., USA). After 10 minutes at 37° C., 250 μL of cells pre-incubated with a test compound were plated per well in the upper chambers of the inserts at a density of 2.5×10^5 cells/well. 300 μL/well medium containing CXCL12 (10 nM) and a test compound were plated in the lower chamber of the insert. After 2.5 h at 37° C., cells in both chambers of inserts were measured by flow cytometry (Guava Technologies, Hayward, Calif., USA).

human CXCR4 = biological target: T1, human CXCR4 (Homo sapiens, UniProt P61073); test: Inhibition of 125I-CXCL12 radioligand binding, membranes of human CXCR4-transfected HEK293 cells; details: 0.16 nM 125I-CXCL12, 60 min at 30 °C, read-out: concentration required to inhibit binding of 125I-CXCL12 to CXCR4 by 50% (IC50)
T1 construct: expressed in transfected cells; host or cells: HEK293 cells (membranes)
T1 sequence (P61073 whole entry): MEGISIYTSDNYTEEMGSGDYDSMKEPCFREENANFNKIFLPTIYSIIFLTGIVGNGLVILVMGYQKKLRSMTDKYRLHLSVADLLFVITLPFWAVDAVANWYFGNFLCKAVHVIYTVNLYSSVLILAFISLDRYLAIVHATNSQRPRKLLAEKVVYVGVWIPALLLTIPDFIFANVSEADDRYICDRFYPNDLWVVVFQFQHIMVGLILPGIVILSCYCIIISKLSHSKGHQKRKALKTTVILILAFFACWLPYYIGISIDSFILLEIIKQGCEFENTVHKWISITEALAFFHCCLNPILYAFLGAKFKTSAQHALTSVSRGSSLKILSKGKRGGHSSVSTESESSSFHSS
Description: Binding competition between the compounds of Formula (I) and human CXCL12 was assessed using a radioligand binding assay as described below.
Membranes (2-4 μg) prepared from human CXCR4-transfected HEK293 cells in 40 μL of assay buffer (50 mM HEPES-NaOH, pH 7.4, 100 mM NaCl, 5 mM MgCl2, 1 mM CaCl2, 0.5% bovine serum albumin) were incubated with 20 μL of radio-labeled ^125I-CXCL12 (0.16 nM) and 20 μL of a test compound in an assay plate (Costar Corning, Cambridge, Mass.). After 60 minutes at 30° C., the incubation was terminated by transferring the resulting reaction mixture to a 96-well GF/B filter plate (Millipore Corp., Billerica, Mass.) and filtered via a manifold. The plate was washed with 100 μL of ice-cold wash buffer (50 mM HEPES-NaOH, pH 7.4, 100 mM NaCl) four times. The radioactivity bound to the filter was measured by Topcount (PerkinElmer Inc., Waltham, Mass.).

[3] = test system: Hematopoietic stem cells (CD34+) and endothelial progenitor cells (CD133+); test: Mobilization of stem/progenitor cells into peripheral blood in mice; format: in vivo, C57BL/6 male mice

c1cc(CN2CCCNCCNCCCNCC2)ccc1CN1CCCNCCNCCCNCC1 [AMD3100, reference compound]
tumor size (HCC cell line HCA-1): about 250 mm^3

c1ccc2c(NC3CCNCC3)nc(NCc3nnn(CCCNCCCNC4CCCCC4)n3)nc2c1 [Compound 13]
BUN level relative to that induced in saline-treated AKI rats [1]: 25%
Scr (serum creatinine) level relative to that induced in saline-treated AKI rats [1]: 56%
EC50 [2]: < 0.05 µM
IC50 (human CXCR4): < 0.05 µM

Cc1cc(NC2CCNCC2)nc(NCc2coc(CCCNCCCNC3CCCCC3)n2)n1 [Compound 16]
EC50 [2]: < 0.05 µM
IC50 (human CXCR4): < 0.05 µM

Cc1cc(NC2CCNCC2)nc(NCc2nc(CCCNCCCNC3CCCCC3)cs2)n1 [Compound 17]
EC50 [2]: < 0.05 µM
IC50 (human CXCR4): < 0.05 µM

Cc1cc(NC2CCNCC2)nc(NCc2nc(CCCNCCCNC3CCCCC3)co2)n1 [Compound 18]
EC50 [2]: < 0.05 µM
IC50 (human CXCR4): < 0.05 µM

Cc1cc(NC2CCNCC2)nc(NCc2nnc(CCCNCCCNC3CCCCC3)o2)n1 [Compound 20]
EC50 [2]: < 0.05 µM
IC50 (human CXCR4): 0.05 to 0.1 µM

Cc1cc(NC2CCNCC2)nc(NCc2nnc(CCCNCCCNC3CCCCC3)s2)n1 [Compound 21]
EC50 [2]: < 0.05 µM
IC50 (human CXCR4): < 0.05 µM

Cc1cc(NC2CCNCC2)nc(NCCc2cn(CCCCNCCCNC3CCCCC3)cn2)n1 [Compound 22]
EC50 [2]: < 0.05 µM
IC50 (human CXCR4): 0.05 to 0.1 µM

Cc1cc(NC2CCNCC2)nc(NCc2nnn(CCCNCCCNC3CCCCC3)n2)n1 [Compound 23]
EC50 [2]: < 0.05 µM
IC50 (human CXCR4): < 0.05 µM

Cc1cc(NC2CCNCC2)nc(NCc2nnc(CCCNCCCNC3CCCCC3)[nH]2)n1 [Compound 24]
EC50 [2]: < 0.05 µM
IC50 (human CXCR4): 0.05 to 0.1 µM

CCc1cc(NC2CCNCC2)nc(NCc2nnn(CCCNCCCNC3CCCCC3)n2)n1 [Compound 26]
EC50 [2]: < 0.05 µM
IC50 (human CXCR4): 0.05 to 0.1 µM

N[C@@H](CCC(=O)N1CCC(Nc2nc(NCc3cc(CCCNCCCNC4CCCCC4)on3)nc3ccccc23)CC1)C(=O)O [Compound 29]
EC50 [2]: < 0.05 µM
IC50 (human CXCR4): < 0.05 µM

N[C@@H](CCC(=O)N1CCC(Nc2nc(NCc3coc(CCCNCCCNC4CCCCC4)n3)nc3ccccc23)CC1)C(=O)O [Compound 30]
EC50 [2]: < 0.05 µM
IC50 (human CXCR4): < 0.05 µM

N[C@@H](CCC(=O)N1CCC(Nc2nc(NCc3nc(CCCNCCCNC4CCCCC4)cs3)nc3ccccc23)CC1)C(=O)O [Compound 31]
EC50 [2]: < 0.05 µM
IC50 (human CXCR4): 0.05 to 0.1 µM

N[C@@H](CCC(=O)N1CCC(Nc2nc(NCc3nc(CCCNCCCNC4CCCCC4)co3)nc3ccccc23)CC1)C(=O)O [Compound 32]
EC50 [2]: < 0.05 µM
IC50 (human CXCR4): 0.05 to 0.1 µM

N[C@@H](CCC(=O)N1CCC(Nc2nc(NCc3noc(CCCNCCCNC4CCCCC4)n3)nc3ccccc23)CC1)C(=O)O [Compound 33]
EC50 [2]: 0.05 to 0.15 µM
IC50 (human CXCR4): 0.05 to 0.1 µM

N[C@@H](CCC(=O)N1CCC(Nc2nc(NCc3nnc(CCCNCCCNC4CCCCC4)o3)nc3ccccc23)CC1)C(=O)O [Compound 34]
EC50 [2]: 0.05 to 0.15 µM
IC50 (human CXCR4): 0.05 to 0.1 µM

N[C@@H](CCC(=O)N1CCC(Nc2nc(NCc3nnc(CCCNCCCNC4CCCCC4)s3)nc3ccccc23)CC1)C(=O)O [Compound 35]
BUN level relative to that induced in saline-treated AKI rats [1]: 15%
Scr (serum creatinine) level relative to that induced in saline-treated AKI rats [1]: 22%
EC50 [2]: < 0.05 µM
IC50 (human CXCR4): 0.05 to 0.1 µM

N[C@@H](CCC(=O)N1CCC(Nc2nc(NCc3nnn(CCCNCCCNC4CCCCC4)n3)nc3ccccc23)CC1)C(=O)O [Compound 37]
EC50 [2]: < 0.05 µM
IC50 (human CXCR4): 0.05 to 0.1 µM

N[C@@H](CCC(=O)N1CCC(Nc2nc(NCc3nnc(CCCNCCCNC4CCCCC4)[nH]3)nc3ccccc23)CC1)C(=O)O [Compound 38]
EC50 [2]: < 0.05 µM
IC50 (human CXCR4): 0.05 to 0.1 µM

Cc1cc(NC2CCN(C(=O)CCNCC(=O)O)CC2)nc(NCc2cc(CCCNCCCNC3CCCCC3)on2)n1 [Compound 39]
EC50 [2]: < 0.05 µM
IC50 (human CXCR4): 0.05 to 0.1 µM

Cc1cc(NC2CCN(C(=O)CCNCC(=O)O)CC2)nc(NCc2coc(CCCNCCCNC3CCCCC3)n2)n1 [Compound 40]
BUN level relative to that induced in saline-treated AKI rats [1]: 20%
Scr (serum creatinine) level relative to that induced in saline-treated AKI rats [1]: 36%
hematopoietic stem cell mobilization combined with G-CSF (CFU-GM numbers) [3]: mobilize hematopoietic stem cells synergistically
EC50 [2]: < 0.05 µM
IC50 (human CXCR4): < 0.05 µM

Cc1cc(NC2CCN(C(=O)CCNCC(=O)O)CC2)nc(NCc2nc(CCCNCCCNC3CCCCC3)cs2)n1 [Compound 41]
EC50 [2]: < 0.05 µM
IC50 (human CXCR4): 0.1 to 1 µM

Cc1cc(NC2CCN(C(=O)CCNCC(=O)O)CC2)nc(NCc2nnc(CCCNCCCNC3CCCCC3)s2)n1 [Compound 45]
BUN level relative to that induced in saline-treated AKI rats [1]: 11%
Scr (serum creatinine) level relative to that induced in saline-treated AKI rats [1]: 10%
hematopoietic stem cell mobilization combined with G-CSF (CFU-GM numbers) [3]: mobilize hematopoietic stem cells synergistically
EC50 [2]: < 0.05 µM
IC50 (human CXCR4): 0.05 to 0.1 µM

Cc1cc(NC2CCN(C(=O)CCNCC(=O)O)CC2)nc(NCc2nnn(CCCNCCCNC3CCCCC3)n2)n1 [Compound 46]
BUN level relative to that induced in saline-treated AKI rats [1]: 22%
Scr (serum creatinine) level relative to that induced in saline-treated AKI rats [1]: 22%
EC50 [2]: 0.05 to 0.15 µM
IC50 (human CXCR4): 0.05 to 0.1 µM

N[C@@H](CCC(=O)NCCN1CCC(Nc2nc(NCc3cc(CCCNCCCNC4CCCCC4)on3)nc3ccccc23)CC1)C(=O)NCCP(=O)(O)O [Compound 47]
EC50 [2]: < 0.05 µM
IC50 (human CXCR4): 0.05 to 0.1 µM

N[C@@H](CCC(=O)NCCN1CCC(Nc2nc(NCc3coc(CCCNCCCNC4CCCCC4)n3)nc3ccccc23)CC1)C(=O)NCCP(=O)(O)O [Compound 48]
EC50 [2]: < 0.05 µM
IC50 (human CXCR4): 0.05 to 0.1 µM

N[C@@H](CCC(=O)NCCN1CCC(Nc2nc(NCc3nc(CCCNCCCNC4CCCCC4)cs3)nc3ccccc23)CC1)C(=O)NCCP(=O)(O)O [Compound 49]
hematopoietic stem cell mobilization combined with G-CSF (CFU-GM numbers) [3]: mobilize hematopoietic stem cells synergistically
EC50 [2]: < 0.05 µM
IC50 (human CXCR4): 0.05 to 0.1 µM

N[C@@H](CCC(=O)NCCN1CCC(Nc2nc(NCc3nc(CCCNCCCNC4CCCCC4)co3)nc3ccccc23)CC1)C(=O)NCCP(=O)(O)O [Compound 50]
hematopoietic stem cell mobilization combined with G-CSF (CFU-GM numbers) [3]: mobilize hematopoietic stem cells synergistically
EC50 [2]: 0.05 to 0.15 µM
IC50 (human CXCR4): 0.05 to 0.1 µM

O=C(O)CNCCCC(=O)N1CCC(Nc2nc(NCc3nnn(CCCNCCCNC4CCCCC4)n3)nc3ccccc23)CC1 [Compound 59]
EC50 [2]: < 0.05 µM
IC50 (human CXCR4): < 0.05 µM

O=C(O)CNCCC(=O)N1CCC(Nc2nc(NCc3nnn(CCCNCCCNC4CCCCC4)n3)nc3ccccc23)CC1 [Compound 61]
EC50 [2]: < 0.05 µM
IC50 (human CXCR4): 0.05 to 0.1 µM

Cc1cc(NC2CCN(C(=O)CCCNCC(=O)O)CC2)nc(NCc2nnn(CCCNCCCNC3CCCCC3)n2)n1 [Compound 62]
EC50 [2]: < 0.05 µM
IC50 (human CXCR4): 0.05 to 0.1 µM
